One series deals with T1, human NK2R (Homo sapiens, UniProt P21452).
T1 construct: expressed in transfected cells; host or cells: CHO cells
T1 sequence (P21452 1-398): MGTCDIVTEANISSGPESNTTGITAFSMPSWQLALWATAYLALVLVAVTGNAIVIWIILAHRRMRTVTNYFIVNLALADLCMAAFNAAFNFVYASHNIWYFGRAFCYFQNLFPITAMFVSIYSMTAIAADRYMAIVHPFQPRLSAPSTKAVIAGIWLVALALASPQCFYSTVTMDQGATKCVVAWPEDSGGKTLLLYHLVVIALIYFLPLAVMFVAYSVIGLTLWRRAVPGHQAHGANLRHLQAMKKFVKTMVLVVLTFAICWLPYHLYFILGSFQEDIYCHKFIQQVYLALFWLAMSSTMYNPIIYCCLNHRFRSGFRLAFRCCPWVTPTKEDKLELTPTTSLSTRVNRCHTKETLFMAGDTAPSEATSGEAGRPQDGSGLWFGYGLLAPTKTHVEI
Put plainly: Effect on activity of tachykinin receptor type 2 (intracellular calcium, fluorescence). Format: cell-based. The conditions noted are these: CHO cells expressing human NK2R, agonist [Nleu10]-NKA-(4-10) 10 nM, read-out: IC50, antagonist of tachykinin receptor type 2. As for the experimental part: Compound I was dissolved in DMSO to a concentration of 100 mM; then the stock solution was serially diluted with DMSO. The maximal start concentration of substance is […]. The effect was determined at 8 concentrations of test compound, each concentration was investigated twice. CHO cells expressing human NK2R were used in the experiment, said cells after the preincubation with an agonist [Nleu10]-NKA-(4-10) (10 nM) were incubated with the test compound. The activity of receptors was determined by the intracellular calcium concentration using fluorescence spectroscopy (Biochem Biophys Res Commun. 1994 May 16; 200(3):1512-20).
(In general: Calcium assays in cells follow changes in intracellular calcium, usually with a dye or a luminescent sensor.)

For a further series, the target named is T2, NK3R (Homo sapiens, UniProt P29371).
T2 construct: expressed in transfected cells; host or cells: CHO-K1 cells
T2 sequence (P29371 1-465): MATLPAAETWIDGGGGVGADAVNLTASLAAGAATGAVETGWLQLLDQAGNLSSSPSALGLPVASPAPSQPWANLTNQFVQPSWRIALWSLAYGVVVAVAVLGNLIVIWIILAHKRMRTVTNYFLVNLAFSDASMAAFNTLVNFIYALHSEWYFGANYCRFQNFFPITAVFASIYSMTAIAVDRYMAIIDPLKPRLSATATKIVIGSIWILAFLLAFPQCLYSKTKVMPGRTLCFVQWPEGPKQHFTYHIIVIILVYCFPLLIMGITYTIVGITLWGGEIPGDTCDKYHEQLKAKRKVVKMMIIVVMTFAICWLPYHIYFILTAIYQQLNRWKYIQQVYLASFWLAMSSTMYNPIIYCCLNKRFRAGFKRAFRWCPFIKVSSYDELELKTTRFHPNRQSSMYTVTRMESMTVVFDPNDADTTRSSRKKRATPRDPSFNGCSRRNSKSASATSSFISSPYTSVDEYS
The series can be described thus: Effect on activity of tachykinin receptor type 3 (intracellular calcium, fluorescence). Format: cell-based. The conditions noted are these: CHO-K1 cells expressing NK3R, agonist [MePhe10]-NKB 1 nM, read-out: IC50, antagonist of tachykinin receptor type 3. The protocol:
Compound I was dissolved in DMSO to a concentration of 100 mM; then the stock solution was serially diluted with DMSO. The maximal start concentration of substance is 100 μM. The effect was determined at 5 concentrations of test compounds, each concentration was investigated twice. CHO-K1 cells expressing NK3R were used in the experiment, said cells after the preincubation with an agonist [MePhe10]-NKB (1 nM) were incubated with the test compound. The activity of receptors was determined by the intracellular calcium concentration using fluorescence spectroscopy (Br J Pharmacol. 1999 October; 128(3):627-36).

The target in series [1] is human recombinant μ-opioid receptor (Homo sapiens, UniProt P35372). The series can be described thus: μ-opioid receptor radioligand displacement ([3H]DAMGO). Type of series: binding. A general note: Loss of bound radioactivity is the signal in a displacement assay; it reports binding, not function.
Chain of human recombinant μ-opioid receptor (P35372 whole entry): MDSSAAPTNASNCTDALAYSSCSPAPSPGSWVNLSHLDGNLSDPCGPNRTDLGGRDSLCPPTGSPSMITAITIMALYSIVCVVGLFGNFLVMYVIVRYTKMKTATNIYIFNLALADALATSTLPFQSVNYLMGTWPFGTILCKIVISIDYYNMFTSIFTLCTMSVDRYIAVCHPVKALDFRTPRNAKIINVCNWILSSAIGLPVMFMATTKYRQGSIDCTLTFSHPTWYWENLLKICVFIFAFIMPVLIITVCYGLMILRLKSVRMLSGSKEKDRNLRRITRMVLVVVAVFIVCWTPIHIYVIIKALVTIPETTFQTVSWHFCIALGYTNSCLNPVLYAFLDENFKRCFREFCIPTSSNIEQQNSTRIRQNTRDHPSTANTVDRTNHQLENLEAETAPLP
Another series relates to balb/c male mice. Put plainly: Acute pain response model, administration of mustard oil in mice. Format: in vivo. The protocol:
The study of the activity of the compound on the acute pain response model was conducted using a standard procedure (Laird M. A., Martinez-Caro L., Garcia-Nicas E., Cervero F. A new model of visceral pain and referred hyperalgesia in the mouse//J. Pain 92 (2001). P. 335-342).
The study was carried out on balb/c male mice, the individual weight of which deviates from the mean value within the sex of no more than ±10%. First, the mice were lightly anesthetized (after 24 hours of fasting). Then 1% solution of mustard oil in physiological solution was introduced to the animals at 4 cm in depth with the help of catheter 3.5 F. The solvent was introduced to the healthy control. 5 minutes after the introduction of the mustard oil, the presence of pain in the animal (a number of abdominal lickings, abdominal wall abductions, lower abdominal deformity to the floor, abdominal distension) was evaluated during the first 20 minutes. Compound I was administered once intragastrically 1 hour before the administration of mustard oil. The obtained data were checked using the Grubb's test for the presence of the largest or smallest abnormal observation (ejection) in the sample. Values determined “to be eliminated” in this test were not used for further assay. For all data, descriptive statistics was used: a mean value (M) and standard error of the mean value (m) were counted up. The normality of distribution of the values obtained in the course of the experiment was checked with the aid of the Kolmogorov-Smirnov test. In the case of normal distribution, Student's t-test (t-test) was used to evaluate the inter-group distinctions. In the case of the distribution that is other than the normal one the Kruskall-Wallis test (with Dann's post hoc test) was used for the comparison of several groups. Distinctions were determined at 5% at a level of confidence.

Series [2] deals with guinea pigs of Agouti line. The series can be described thus: Citrate cough model in guinea pigs, inhalation administration. Type of series: in vivo. The conditions noted are these: 0.25 mg/kg by inhalation 15 minutes prior to citric acid.
Series [3] is described as follows: Pharmacokinetics and tissue bioavailability after oral administration to rats. Type of series: in vivo. Particulars: oral 10 mg/kg (therapeutic dose). The protocol:
To confirm low systemic availability of Compound 1, the study of pharmacokinetics and bioavailability of Compound 1 was carried out after the oral administration to rats in a dose of 10 mg/kg. The study was carried out on 18 male Vistar rats. Blood sampling in the animals was carried out at given time points for 24 h after the administration of the preparation. The content of Compound 1 in plasma samples was analyzed by HPLC-MS/MS, the […] was 1 ng/ml.

The nature of series [4]: Solubility remark in acute toxicity dosing. Particulars: solvent 0.1% Tween-80 solution in water; 2000 mg/kg dose given in 2 administrations. Type of series: physicochemical. The protocol:
Compound I was administered to rats and mice intragastrically at a dose of 5000 mg/kg, intraperitoneally—at a dose of 2000 mg/kg. Control groups (female and male objects) were received a solvent (0.1% Tween-80 solution in water).

1 compound from patent publication US11414377B2, “Modulator of metabotropic and ionotropic transmembrane receptors and use thereof” (IBD THERAPEUTICS LLC, priority 2018, dated 2022) can be followed below.

Molecules are shown by their SMILES. pIC50: −log10 of the molar value.

Usually pIC50 stands for −log10 of the IC50, conventionally taken in molar units. As to `O=C(Cc1ccc(O)cc1)N[C@@H](Cc1ccccc1)C(=O)NCCc1ccccc1` [Compound I, 2-phenylethylamide N-(p-hydroxyphenylacetyl)phenylalanine], the pIC50 at human NK2R is 5.19; at NK3R it was 4.82; in series [1], 5.39. Also, the “Number of pain sensations, 0-20 min” value in the series on balb/c male mice (15 mg/kg once intragastrically 1 hour prior to mustard oil, control 10.4 ± 1.59, intact 2.2 ± 0.33) is 2.56 ± 0.78 &; in the series with balb/c male mice (1.5 once intragastrically 1 hour prior to mustard oil, control 10.4 ± 1.59) it was 14.8 ± 3.01; in the series on balb/c male mice (3 once intragastrically 1 hour prior to mustard oil, control 10.4 ± 1.59), 8.56 ± 0.94; in the series with balb/c male mice (7.5 once intragastrically 1 hour prior to mustard oil, control 10.4 ± 1.59), 15.1 ± 1.7. Moreover, the “Suppression of cough (% from the control of pathology) in the chamber” value in series [2] stood at 39.1%. Besides, the “A number of cough attacks during the inhalation for 10 minutes” value in series [2] (control 48.8 ± 4) was 29.7 ± 2.7*&. The “Penetration into the brain” value in series [3] is recorded as “does not penetrate into the brain of rats”. In series [4], the Solubility result is “poor”.
